Data reported in patent US10266526B2, “Substituted 1,2,3-triazoles as SMYD inhibitors for treating cancer” (EPIZYME, INC., priority 2014, dated 2019).
Read-outs that look alike come from different tables or passages of the source.

Biological target: SMYD3 (Homo sapiens (Human), UniProt Q9H7B4)
Assay: SMYD3 biochemical assay (SMYD3 enzyme assay on MEKK2 protein substrate, 3H-SAM scintillation proximity assay)
How it was run: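 Detection used scintillation proximity beads to capture ³H-methylated GST-MEKK2 after quench with 100 uM final cold SAM. The reaction was started by SAM/MEKK2 addition after a 30 min RT compound–enzyme preincubation. Enzyme was tag-free full-length human SMYD3 from E. coli, in buffer of 25 mM Tris-Cl pH 8.0, 1 mM TCEP, 0.005% BSG, 0.005% Tween 20.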

[1] = read-out: SMYD3 Biochem IC50 (μM)*
[2] = Table 1A, average of n = 1 to n = 50, read-out: SMYD3 Biochem IC50

Chain of SMYD3 (Q9H7B4 whole entry): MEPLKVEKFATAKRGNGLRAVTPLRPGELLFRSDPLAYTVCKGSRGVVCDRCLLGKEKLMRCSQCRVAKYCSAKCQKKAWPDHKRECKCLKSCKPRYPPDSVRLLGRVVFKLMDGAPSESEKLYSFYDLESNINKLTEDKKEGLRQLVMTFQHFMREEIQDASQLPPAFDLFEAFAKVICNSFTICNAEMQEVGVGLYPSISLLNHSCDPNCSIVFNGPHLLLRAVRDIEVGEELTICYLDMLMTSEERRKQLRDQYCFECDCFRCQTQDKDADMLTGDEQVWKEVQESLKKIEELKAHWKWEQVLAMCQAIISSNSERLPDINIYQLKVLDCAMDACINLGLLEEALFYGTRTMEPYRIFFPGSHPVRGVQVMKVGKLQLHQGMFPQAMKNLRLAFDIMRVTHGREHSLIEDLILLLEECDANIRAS

IC50 (read-out: SMYD3 Biochem IC50) | SMILES | also measured
> 100 µM | N[C@H]1CC[C@H](NC(=O)c2cccc3[nH]ccc23)CC1 [compound 291, N-((1r,4r)-4-aminocyclohexyl)-1H-indole-4-carboxamide] | 
14.1 µM | CC(NC(=O)c1ccc2c(c1)C(=O)C(=O)N2)C1CCN(C(=O)[C@H](C)N)CC1 (stereo partly drawn) [compound 488, N-(1-(1-(L-alanyl)piperidin-4-yl)ethyl)-2,3-dioxoindoline-5-carboxamide] | 
> 100 µM | Nc1ccc(C(=O)N[C@H]2CC[C@H](N)CC2)nc1 [compound 438, 5-amino-N-((1r,4r)-4-aminocyclohexyl)picolinamide] | 
42.3 µM | NC1CCC(NC(=O)c2cccc3c2NC(=O)C3)CC1 (stereo not drawn) [compound 506, N-(4-aminocyclohexyl)-2-oxoindoline-7-carboxamide] | 
> 100 µM | CC(NC(=O)c1ccc(S(N)(=O)=O)cc1)C1CCN(C(=O)[C@H](C)N)CC1 (stereo partly drawn) [compound 323, N-(1-(1-(L-alanyl)piperidin-4-yl)ethyl)-4-sulfamoylbenzamide] | 
> 100 µM | Cc1cnc(C(=O)N[C@H]2CC[C@H](N)CC2)s1 [compound 398, N-((1r,4r)-4-aminocyclohexyl)-5-methylthiazole-2-carboxamide] | 
> 100 µM | NCCC(=O)N[C@H]1CC[C@H](NC(=O)Cc2cncnc2)CC1 [compound 364, 3-amino-N-((1r,4r)-4-(2-(pyrimidin-5-yl)acetamido)cyclohexyl)propanamide] | 
> 100 µM | N[C@H]1CC[C@H](NC(=O)c2nc3ccccc3[nH]2)CC1 [compound 336, N-((1r,4r)-4-aminocyclohexyl)-1H-benzo[d]imidazole-2-carboxamide] | 
> 100 µM | Cc1ccncc1C(=O)N[C@H]1CC[C@H](N)CC1 [compound 339, N-((1r,4r)-4-aminocyclohexyl)-4-methylnicotinamide] | 
> 100 µM | N[C@H]1CC[C@H](NC(=O)c2nc3ccc(F)cc3s2)CC1 [compound 500, N-((1r,4r)-4-aminocyclohexyl)-6-fluorobenzo[d]thiazole-2-carboxamide] | 
> 100 µM | NCCC(=O)N[C@H]1CC[C@H](NC(=O)c2ccc(O)nc2)CC1 [compound 294, N-((1r,4r)-4-(3-aminopropanamido)cyclohexyl)-6-hydroxynicotinamide] | 
6.57 µM | CC(NC(=O)c1cc2cn[nH]c2cn1)C1CCN(C(=O)[C@H](C)N)CC1 (stereo partly drawn) [compound 496, N-(1-(1-(L-alanyl)piperidin-4-yl)ethyl)-1H-pyrazolo[3,4-c]pyridine-5-carboxamide] | 
> 100 µM | NCCC(=O)N[C@H]1CC[C@H](NC(=O)c2cc3cc(F)ccc3[nH]2)CC1 [compound 335, N-((1r,4r)-4-(3-aminopropanamido)cyclohexyl)-5-fluoro-1H-indole-2-carboxamide] | 
> 100 µM | N[C@H]1CC[C@H](NC(=O)C2C[C@@H]3C=C[C@H]2C3)CC1 (stereo partly drawn) [compound 417, (1r,4r)-N-((1r,4R)-4-aminocyclohexyl)bicyclo[2.2.1]hept-5-ene-2-carboxamide] | 
31.6 µM | Cc1nc2ccccc2c(C(=O)NC(C)C2CCN(C(=O)[C@H](C)N)CC2)c1N (stereo partly drawn) [compound 489, N-(1-(1-(L-alanyl)piperidin-4-yl)ethyl)-3-amino-2-methylquinoline-4-carboxamide] | 
> 100 µM | CC(NC(=O)/C=C/c1c[nH]cn1)C1CCN(C(=O)[C@H](C)N)CC1 (stereo partly drawn) [compound 494, (E)-N-(1-(1-(L-alanyl)piperidin-4-yl)ethyl)-3-(1H-imidazol-4-yl)acrylamide] | 

The next lines start with the compound.

SMILES | IC50 (read-out: SMYD3 Biochem IC50) | also measured
CC(NC(=O)c1ccc2c(c1)CCC(=O)N2)C1CCN(C(=O)[C@H](C)N)CC1 (stereo partly drawn) [compound 96, N-(1-(1-(L-alanyl)piperidin-4-yl)ethyl)-2-oxo-1,2,3,4-tetrahydroquinoline-6-carboxamide] |  | IC50 [1]: 193 µM
CC(NC(=O)c1n[nH]c(=O)[nH]1)C1CCN(C(=O)[C@H](C)N)CC1 (stereo partly drawn) [compound 546, N-(1-(1-(L-alanyl)piperidin-4-yl)ethyl)-5-oxo-4,5-dihydro-1H-1,2,4-triazole-3-carboxamide] |  | IC50 [2]: 9.76 µM
Nc1nc(C(=O)N[C@H]2CC[C@H](N)CC2)c[nH]1 [compound 572, 2-amino-N-((1r,4r)-4-aminocyclohexyl)-1H-imidazole-4-carboxamide] |  | IC50 [2]: > 10 µM
CC(NC(=O)c1nccn1C)C1CCN(C(=O)[C@H](C)N)CC1 (stereo partly drawn) [compound 253, N-(1-(1-(L-alanyl)piperidin-4-yl)ethyl)-1-methyl-1H-imidazole-2-carboxamide] | 64.9 µM | 
Cc1cnccc1C(=O)NC(C)C1CCN(C(=O)[C@H](C)N)CC1 (stereo partly drawn) [compound 254, N-(1-(1-(L-alanyl)piperidin-4-yl)ethyl)-3-methylisonicotinamide] | > 100 µM | 
NCCC(=O)N[C@H]1CC[C@H](NC(=O)Cc2ccc(F)cc2)CC1 [compound 207, 3-amino-N-((1r,4r)-4-(2-(4-fluorophenyl)acetamido)cyclohexyl)propanamide] | > 100 µM | 
Nc1ccc(C(=O)N[C@H]2CC[C@H](N)CC2)cn1 [compound 123, 6-amino-N-((1r,4r)-4-aminocyclohexyl)nicotinamide] |  | IC50 [1]: 108 µM
N[C@H]1CC[C@H](NC(=O)c2ccc3c(c2)OC(F)(F)O3)CC1 [compound 285, N-((1r,4r)-4-aminocyclohexyl)-2,2-difluorobenzo[d][1,3]dioxole-5-carboxamide] | 69.1 µM | 
Cc1cc2[nH]c(C(=O)N[C@H]3CC[C@H](N)CC3)cc2o1 [compound 57, N-((1r,4r)-4-aminocyclohexyl)-2-methyl-4H-furo[3,2-b]pyrrole-5-carboxamide] |  | IC50 [1]: 134 µM
C[C@@H](N)C(=O)NCCCCNC(=O)c1ccc2c(c1)CC(=O)N2 [compound 114, (R)-N-(4-(2-aminopropanamido)butyl)-2-oxoindoline-5-carboxamide] |  | IC50 [1]: 22.3 µM
N[C@H]1CC[C@H](NC(=O)c2cc(-n3cnnc3)ccc2Cl)CC1 [compound 126, N-((1r,4r)-4-aminocyclohexyl)-2-chloro-5-(4H-1,2,4-triazol-4-yl)benzamide] |  | IC50 [1]: 32 µM
CC(NC(=O)c1cn(CC(N)=O)nn1)C1CCN(C(=O)[C@H](C)N)CC1 (stereo partly drawn) [compound 534, N-(1-(1-(L-alanyl)piperidin-4-yl)ethyl)-1-(2-amino-2-oxoethyl)-1H-1,2,3-triazole-4-carboxamide] |  | IC50 [2]: > 50 µM
NCCCC(=O)N[C@H]1CC[C@H](NC(=O)c2nnc[nH]2)CC1 [compound 540, N-((1r,4r)-4-(4-aminobutanamido)cyclohexyl)-4H-1,2,4-triazole-3-carboxamide] |  | IC50 [2]: > 50 µM
CS(=O)(=O)c1cccc(C(=O)N[C@H]2CC[C@H](N)CC2)c1 [compound 151, N-((1r,4r)-4-aminocyclohexyl)-3-(methylsulfonyl)benzamide] |  | IC50 [1]: > 100 µM
NCCC(=O)N[C@H]1CC[C@H](NC(=O)c2cc[n+]([O-])cc2)CC1 [compound 264, 4-(((1r,4r)-4-(3-aminopropanamido)cyclohexyl)carbamoyl)pyridine 1-oxide] | > 100 µM | 
CCn1nc(C)cc1C(=O)NC(c1ccccc1)C1CCNCC1 (stereo not drawn) [compound 30, 1-ethyl-3-methyl-N-(phenyl(piperidin-4-yl)methyl)-1H-pyrazole-5-carboxamide] |  | IC50 [1]: 69.2 µM
Nc1nc(C(=O)NC(c2ccccc2)C2CCNCC2)co1 (stereo not drawn) [compound 80, 2-amino-N-(phenyl(piperidin-4-yl)methyl)oxazole-4-carboxamide] |  | IC50 [1]: 97.1 µM
NCCC(=O)N[C@H]1CC[C@H](NC(=O)c2cc3ccccc3[nH]2)CC1 [compound 233, N-((1r,4r)-4-(3-aminopropanamido)cyclohexyl)-1H-indole-2-carboxamide] | > 100 µM | 
CC(NC(=O)c1nc2ccncc2s1)C1CCN(C(=O)[C@H](C)N)CC1 (stereo partly drawn) [compound 551, N-(1-(1-(L-alanyl)piperidin-4-yl)ethyl)thiazolo[5,4-c]pyridine-2-carboxamide] |  | IC50 [2]: > 50 µM
CN1C(=O)Cc2cc(C(=O)NC3CCN(C(=O)[C@@H](N)Cc4c[nH]c5ccccc45)CC3)ccc21 [compound 83, N-(1-(L-tryptophyl)piperidin-4-yl)-1-methyl-2-oxoindoline-5-carboxamide] |  | IC50 [1]: 12.9 µM
Nc1cc(C(=O)NC(c2ccccc2)C2CCNCC2)n[nH]1 (stereo not drawn) [compound 45, 5-amino-N-(phenyl(piperidin-4-yl)methyl)-1H-pyrazole-3-carboxamide] |  | IC50 [1]: 137 µM
CCc1cnc(C(=O)N[C@H]2CC[C@H](NC(=O)CCN)CC2)s1 [compound 553, N-((1r,4r)-4-(3-aminopropanamido)cyclohexyl)-5-ethylthiazole-2-carboxamide] |  | IC50 [2]: 25.6 µM
NCCC(=O)N[C@H]1CC[C@H](NC(=O)c2nccc3ccccc23)CC1 [compound 196, N-((1r,4r)-4-(3-aminopropanamido)cyclohexyl)isoquinoline-1-carboxamide] | > 100 µM | 
CCC(=O)c1c[nH]c(C(=O)NC(c2ccccc2)C2CCNCC2)c1 (stereo not drawn) [compound 77, N-(phenyl(piperidin-4-yl)methyl)-4-propionyl-1H-pyrrole-2-carboxamide] |  | IC50 [1]: 10 µM
N[C@H]1CC[C@H](NC(=O)c2cncc(Br)c2)CC1 [compound 116, N-((1r,4r)-4-aminocyclohexyl)-5-bromonicotinamide] |  | IC50 [1]: 51 µM
N[C@H]1CC[C@H](NC(=O)c2nccc3ccccc23)CC1 [compound 197, N-((1r,4r)-4-aminocyclohexyl)isoquinoline-1-carboxamide] | > 100 µM | 
CC(NC(=O)c1ccn(C)n1)C1CCN(C(=O)[C@H](C)N)CC1 (stereo partly drawn) [compound 259, N-(1-(1-(L-alanyl)piperidin-4-yl)ethyl)-1-methyl-1H-pyrazole-3-carboxamide] | > 100 µM | 
CC(NC(=O)c1ccc2ncsc2c1)C1CCN(C(=O)[C@H](C)N)CC1 (stereo partly drawn) [compound 228, N-(1-(1-(L-alanyl)piperidin-4-yl)ethyl)benzo[d]thiazole-6-carboxamide] | > 100 µM | 
N[C@@H](Cc1c[nH]c2ccccc12)C(=O)N1CCC(NC(=O)c2ccc3c(c2)CC(=O)N3)CC1 [compound 51, N-(1-(L-tryptophyl)piperidin-4-yl)-2-oxoindoline-5-carboxamide] |  | IC50 [1]: 0.69 µM
